These results are taken from patent US20210187127A1, “CHALLENGE TEST FOR DIAGNOSING A SUBTYPE OF AUTISM SPECTRUM DISEASE” (STALICLA SA, priority 2017, published 2021).

One series concerns ASD phenotype 1 patients. Put plainly: Challenge test with broccoli sprout extract (sulforaphane), behavioral scores. The series is classed as in vivo, humans. The settings on record: selected patient cohort. The method, then:
(§1) The effects of sulforaphane containing Broccoli sprout extract was observed and quantified in 7 individuals suffering from ASD and previously classified as either phenotype 1 or phenotype 2 patients.
The extract was prepared from selected broccoli seeds known to have high yield of sulforaphane which were surface-disinfected and grown (sprouted) for 3 days in a commercial sprouting facility under controlled light and moisture conditions.

The next series has as its system ASD phenotype 2 patients. The conditions noted are these: for CGI-I: after 3 days of administration; for CGI-I / GGI-S: 7-point scale; for Clinical significance / GGI-S: after challenge test; for ADI-R-RI S score / ADI-R-C S score / ADI-R-SI S score: day 3 of challenge test; for ADI-R-SI S score: baseline 16; for ADI-R-C Change (%) / ADI-R-RI Change (%) / ADI-R-SI Change (%): day 3 vs baseline. The method, then:
as §1
We describe a procedure consisting of an evaluation of patients with ASD prior and after administration of broccoli sprout extract. The extract was prepared from selected broccoli seeds known to have high yield of sulforaphane which were surface-disinfected and grown (sprouted) for 3 days in a commercial sprouting facility under controlled light and moisture conditions. A boiling water extract was prepared, filtered, cooled, and treated with the enzyme myrosinase (from daikon sprouts) to convert precursor glucosinolates to isothiocyanates. Behavioral evaluation of patients was performed prior, during and after administration of sulforaphane-containing broccoli sprout extract. Baseline evaluation of patients was performed using standard clinical endpoints (ADI-R subscales ADI-SI, ADI-C and ADI-RI).
Challenge regimen consisted of the administration of a Broccoli Sprout Extract dose corresponding to a total daily dosage of 4 μmol/kg of sulforaphane, administered in 3 doses over the course of the day.
The assessment of baseline scores and post challenge test scores was conducted by two experienced clinicians with extensive experience in conducting ASD clinical assessments, both of which separately rated the patients. In case of diverging scores in test subscales at baseline or after administration of the challenge test, the lowest severity score was retained. Assessment of clinical endpoints was performed at day 3 of administration of challenge test. Behavioral Outcome Measures: (primary efficacy endpoints): ABC, SRS; CGI-S, CGI-I and ADI-R (ADI-SI, ADI-C, ADI-RI).

The conditions of series [1]: Singh K et al., PNAS 2014; cited from earlier work.
Series [2] has as its system lymphoblastoid cell lines of ASD phenotype 1 patients. In words: Biolog Phenotype Mammalian MicroArrays, NADH production (redox dye). The series is classed as cell-based, human. The conditions noted are these: cells exposed to the growth factor or cytokine; FIG. 1 (AUC) and Table 1. The method, then:
From all subjects, blood samples were collected and lymphoblastoid cell lines generated. Briefly, tubes containing anticoagulant citrate dextrose (ACD) were used to collect blood samples via venipuncture, in order to ensure that the blood cells remained metabolically active. The tubes were kept at room temperature and processed within 24 hours.
Cell lines were obtained by immortalization of lymphocytes from blood samples using Epstein-Barr virus.
Energy production of cells was measured using commercially available Phenotype Mammalian MicroArrays (PM-Ms, Biolog, Hayward, Calif., USA).
The compound in each well was designed to be used by the cells, either as the sole energy source or as the metabolic effector influencing the utilization of an energy source (α-D-glucose) added in the cell suspension. […] Before plating, cell viability and number were assessed utilizing a BioRad cell counter and a trypan blue dye. The concentration of live cells required for plating was 4×10^5 cells/mL, corresponding to 20,000 cells per well in a volume of 50 μL. […] Cells were incubated for 48 h at 37° C. in 5% CO2, using the modified Biolog IF-M1 medium.
The Biolog IF-M1 medium was modified for plates PM-M1 to M4 by adding the following to 100 mL of Biolog IF-M1: 1.1 mL of 100× penicillin/streptomycin solution, 0.16 mL of 200 mM glutamine (final concentration 0.3 mM), and 5.3 mL of Fetal Bovine Serum (FBS, final concentration 5%). For plates PM-M5 to M8, 5.5 mM α-D-glucose will be added in place of FBS.
During the 48-hour incubation, the only energy source the cells had was the chemical in the well. After this first incubation, Biolog Redox Dye Mix MB was added (10 μL/well) and the plates were incubated under the same conditions for an additional 24 hours. As the cells metabolized the energy source, tetrazolium dye in the media was reduced, producing a purple color according to the amount of NADH generated.
For the last 24 hours of the experiment, the plates were incubated in the Omnilog system, which collects optical density readings every 15 minutes, generating 96 data-points for each well. The system also elaborated the kinetic curve for the metabolic reaction in each well and extrapolated parameters such as slope, highest point, endpoint, area under the curve (AUC), and lag.
At the end of the 24-hour incubation, the plates were analyzed utilizing a microplate reader with readings at 590 and 750 nm. The first value (A590) indicated the highest absorbance peak of the redox dye and the second value (A750) gave a measure of the background noise. The relative absorbance (A590-750) was calculated per well.

Setting [3] is: Example 4 Patient 1 (phenotype 2).
The mark [4] stands for this setting: Example 4 Patient 2 (phenotype 2).

Where two headings read alike, the source gives them in different places.

With `C[S@@+]([O-])CCCCN=C=S` [sulforaphane, 1-isothiocyanato-4R-(methylsulfinyl)butane], the “reducing disease severity as measured through the ADI-R, SRS and GGI-S/CGI-I” value in the series on ASD phenotype 1 patients was “not effective”. Further, in the series with ASD phenotype 2 patients (setting [3]), the CGI-I turned out to be 2, the Clinical significance result is recorded as “Very much improved”, the GGI-S came out at 4 and the “ADI-R-SI S score” value turned out to be 12. Further, in the series on ASD phenotype 2 patients (setting [3]), the “ADI-R-C Change (%)” value is listed as −20%, the “ADI-R-RI Change (%)” value was determined as 0% and the “ADI-R-SI Change (%)” value is recorded as −33%. Further, in the series with ASD phenotype 2 patients (Example 4 Patient 1 (phenotype 2), baseline 3), the “ADI-R-RI S score” value is given as 3. For the same compound, in the series with ASD phenotype 2 patients (Example 4 Patient 1 (phenotype 2), baseline 12), the “ADI-R-C S score” value is given as 10. Moreover, in the series on ASD phenotype 2 patients (setting [4]), the CGI-I stood at 2, the Clinical significance result was “Very much improved”, the GGI-S is 4 and the “ADI-R-SI S score” value amounted to 14. Also, in the series on ASD phenotype 2 patients (setting [4]), the “ADI-R-C Change (%)” value is reported as −22%, the “ADI-R-RI Change (%)” value is recorded as −25% and the “ADI-R-SI Change (%)” value is reported as −14%. The “ADI-R-RI S score” value in the series on ASD phenotype 2 patients (Example 4 Patient 2 (phenotype 2), baseline 5) was 4. In the series on ASD phenotype 2 patients (Example 4 Patient 2 (phenotype 2), baseline 11), the “ADI-R-C S score” value worked out at 9. Further, in series [1], the “tolerability of administration to humans” value is given as “well tolerated” and the toxicity result is reported as “low toxicity”.

Regarding “PDGF-AB: platelet-derived growth factor AB”, in series [2], the “production of NADH in ASD phenotype 1 cells compared to TDs and non-phenotype 1 cells” value is given as “no significant differences”.

For the compound IGF-I: insulin-like growth factor 1, in series [2], the “production of NADH in ASD phenotype 1 cells compared to TDs and non-phenotype 1 cells” value was “no significant differences”.

For the compound “FGF-1(aFGF): growth factor that selectively targets the PI3K-Akt-mTOR pathway”, the “production of NADH in ASD phenotype 1 cells compared to TDs and non-phenotype 1 cells” value in series [2] is listed as “significantly reduced production of NADH”.

In the case of “hGH(Somatotropin): growth factor that selectively targets the PI3K-Akt-mTOR pathway”, the “production of NADH in ASD phenotype 1 cells compared to TDs and non-phenotype 1 cells” value in series [2] is reported as “significantly reduced production of NADH”.

As to IL-6: Th1 cytokine, the “production of NADH in ASD phenotype 1 cells compared to TDs and non-phenotype 1 cells” value in series [2] is “significantly lower levels of NADH”.

Take IL-1beta: Th1 cytokine: the “production of NADH in ASD phenotype 1 cells compared to TDs and non-phenotype 1 cells” value in series [2] is listed as “significantly lower levels of NADH”.
